# Measurements reported in patent publication US9771602B2 (priority 2013, dated 2017).
# Where “and” joins values, the source holds several entries; their conditions need not be identical. Identical values can stand only once. Counter-ions that a name gives are not always drawn. Like-named read-outs stand apart in the source and are kept apart here.
# Assays:
# [1] = test system: ethanologen yeast PNY 827; test: microbe, parasite or virus in culture; assay type: cell-based, Saccharomyces cerevisiae; details: for Ki: read-out: KI (inhibitory constant on growth)
# [2] = test system: mixed cultures of ethanologen S. cerevisiae PNY 827 and the butanologen yeast S. cerevisiae PNY 2129; assay type: cell-based
# [3] = test system: S. cerevisiae yeast strains PNY0860-1A, PNY827 and CEN.PK 113-7D; test: Filter-disk growth inhibition assay with AHAS inhibitors on top agar plates; assay type: cell-based; details: filter disks containing 20 μg or 10 μg AHAS inhibitor; 72 hours at 30° C.
# [4] = test system: NYLA84 ILV2-410::loxP71/66 with pLH468 and pLH475-JEA1; assay type: cell-based, S. cerevisiae; details: 0 μg/ml to 50 μg/ml sulfometuron methyl; strains expressing cytosolic acetolactate synthase
# [5] = Saccharomyces cerevisiae, PNY827, read-out: IC50 on growth (inhibitor concentration with 50% μ°max)
# [6] = fit to hybrid inhibition kinetics model
# [7] = fit to squared inhibition kinetics
smiles,measurement,setting,value
C=O [formaldehyde],μ°max (fitted maximum specific growth rate without inhibitor),[1],0.59 L/h
same,IC50,[1]; [5],0.9 mM
c1cn[nH]c1 [pyrazole],overall observable μ°max,[1],0.60 L/h
same,μ°max 1,[1],0.52 L/h
same,μ°max 2,[1],0.08 L/h
same,IC50,[1]; [5],3.3 mM
same,Ki,[1]; [6],2.8 mM
same,DHIV + DHMB,[2],0.0 mM
same,butanol-to-ethanol ratio compared with no inhibitor,"[2]; 3 mM and 30 mM, inoculum ratios 1:1 and 1:11, EPT=8 h",dramatically increased
same,butanol:ethanol ratio compared with no inhibitor,"[2]; 30 mM, both inoculum ratios, EPT=48 h",significantly increased
C[S+](C)[O-] [DMSO],μmax (maximum specific growth rate),[1],0.56 L/h
same,Ki,[1],~16 mM
"O=S([O-])[O-].[Na+].[Na+] [sulfite, sodium sulfite]",OD600corr [ ],[1],0.081 and 0.087 and 0.088 and 0.092
same,OD600corr [ ],"[1]; 1 mM (F8-su-1), time 1.00 h",0.082
same,OD600corr [ ],"[1]; 1 mM (F8-su-1), time 2.25 h",0.121
same,OD600corr [ ],"[1]; 1 mM (F8-su-1), time 3.25 h",0.185
same,OD600corr [ ],"[1]; 1 mM (F8-su-1), time 4.25 h",0.307
same,OD600corr [ ],"[1]; 1 mM (F8-su-1), time 6.00 h",1.102
same,OD600corr [ ],"[1]; 1 mM (F8-su-1), time 23.67 h",11.157
same,μmax (maximum specific growth rate),[1]; 1 mM inhibitor,0.59 L/h
same,OD600corr [ ],"[1]; 2 mM (F9-su-2), time 1.00 h",0.086
same,OD600corr [ ],"[1]; 2 mM (F9-su-2), time 2.25 h",0.120
same,OD600corr [ ],"[1]; 2 mM (F9-su-2), time 3.25 h",0.173
same,OD600corr [ ],"[1]; 2 mM (F9-su-2), time 4.25 h",0.265
same,OD600corr [ ],"[1]; 2 mM (F9-su-2), time 6.00 h",0.887
same,OD600corr [ ],"[1]; 2 mM (F9-su-2), time 23.67 h",12.217
same,μmax (maximum specific growth rate),[1]; 2 mM inhibitor,0.54 L/h
same,OD600corr [ ],"[1]; 5 mM (F10-su-3), time 1.00 h",0.090
same,OD600corr [ ],"[1]; 5 mM (F10-su-3), time 2.25 h",0.116
same,OD600corr [ ],"[1]; 5 mM (F10-su-3), time 3.25 h",0.153
same,OD600corr [ ],"[1]; 5 mM (F10-su-3), time 4.25 h",0.208
same,OD600corr [ ],"[1]; 5 mM (F10-su-3), time 6.00 h",0.392
same,OD600corr [ ],"[1]; 5 mM (F10-su-3), time 9.58 h",2.572
same,OD600corr [ ],"[1]; 5 mM (F10-su-3), time 23.67 h",11.717
same,μmax (maximum specific growth rate),[1]; 5 mM inhibitor,0.33 L/h
same,OD600corr [ ],"[1]; 10 mM (F11-su-4), time 1.00 h",0.085
same,OD600corr [ ],"[1]; 10 mM (F11-su-4), time 2.25 h",0.111
same,OD600corr [ ],"[1]; 10 mM (F11-su-4), time 3.25 h",0.140
same,OD600corr [ ],"[1]; 10 mM (F11-su-4), time 4.25 h",0.175
same,OD600corr [ ],"[1]; 10 mM (F11-su-4), time 6.00 h",0.268
same,OD600corr [ ],"[1]; 10 mM (F11-su-4), time 9.58 h",1.102
same,OD600corr [ ],"[1]; 10 mM (F11-su-4), time 23.67 h",11.437
same,μmax (maximum specific growth rate),[1]; 10 mM inhibitor,0.23 L/h
same,OD600corr [ ],"[1]; 20 mM (F3-su-1), time 1.50 h",0.099
same,OD600corr [ ],"[1]; 20 mM (F3-su-1), time 2.67 h",0.115
same,OD600corr [ ],"[1]; 20 mM (F3-su-1), time 4.00 h",0.150
same,OD600corr [ ],"[1]; 20 mM (F3-su-1), time 5.33 h",0.182
same,OD600corr [ ],"[1]; 20 mM (F3-su-1), time 6.75 h",0.226
same,OD600corr [ ],"[1]; 20 mM (F3-su-1), time 9.42 h",0.396
same,OD600corr [ ],"[1]; 20 mM (F3-su-1), time 23.25 h",9.697
same,μmax (maximum specific growth rate),[1]; 20 mM inhibitor,0.18 L/h
same,OD600corr [ ],"[1]; 50 mM (F4-su-2), time 1.50 h",0.095
same,OD600corr [ ],"[1]; 50 mM (F4-su-2), time 2.67 h",0.116
same,OD600corr [ ],"[1]; 50 mM (F4-su-2), time 4.00 h",0.135
same,OD600corr [ ],"[1]; 50 mM (F4-su-2), time 5.33 h",0.161
same,OD600corr [ ],"[1]; 50 mM (F4-su-2), time 6.75 h",0.192
same,OD600corr [ ],"[1]; 50 mM (F4-su-2), time 9.42 h",0.295
same,OD600corr [ ],"[1]; 50 mM (F4-su-2), time 23.25 h",10.717
same,μmax (maximum specific growth rate),[1]; 50 mM inhibitor,0.14 L/h
same,μ°max 1,[1]; [6],0.46 L/h
same,μ°max 2,[1]; [6],0.15 L/h
same,Ki,[1]; [6],4.4 mM
same,overall observable μ°max,[1]; predicted by hybrid inhibition kinetics model,0.61 L/h
same,IC50,"[1]; read-out: IC50 on growth (inhibitor concentration with 50% μ°max), derived from inhibition kinetics and fitted parameters",6.2 mM
"O=CC(=O)O [glyoxylic acid, glyoxylic acid sodium salt monohydrate]",μ°max (fitted maximum specific growth rate without inhibitor),[1],0.60 L/h
same,μmax (maximum specific growth rate),[1]; sodium salt monohydrate,0.59 L/h and 0.55 L/h
"COC(=O)c1sccc1S(=O)(=O)NC(=O)Nc1nc(C)nc(OC)n1 [Harmony, thifensulfuron methyl]",zones of growth inhibition (inhibition of yeast growth),[3],did not inhibit
"O=C/C=C/c1ccccc1 [cinnamaldehyde, trans-cinnamaldehyde]",inhibitor-based mumax (corrected for effect of DMSO),[1],0.64 L/h and 0.63 L/h and 0.55 L/h
same,observed μmax,[1],0.64 L/h and 0.63 L/h and 0.55 L/h
same,μ°max (fitted maximum specific growth rate without inhibitor),[1],0.62 L/h
same,IC50,[1]; [5],0.25 mM
same,Ki,[1]; [7],0.25 mM
same,cell growth,"[1]; non-DMSO experiments: 200 mM, 100 mM, 50 mM, 25 mM, 10 mM, 1 mM",in none of the non-DMSO experiments any cell growth was observed
same,DHIV + DHMB,[2],0.0 mM
same,ratio of butanol vs. ethanol produced compared with no addition,"[2]; 250 μM, inoculum ratios 1:1 and 1:11, EPT=8 h and EPT=48 h",lower
same,growth of mixed cultures,"[2]; 25 mM, both mixed cultures (1:1 and 1:11), EPT=8 h and EPT=48 h",No growth
"COc1cc(OC)nc(NC(=O)NS(=O)(=O)c2ncccc2C(=O)N(C)C)n1 [Accent, nicosulfuron methyl]",zones of growth inhibition (inhibition of yeast growth),[3],did not inhibit
Cc1cn[nH]c1.Cl [4-methylpyrazole hydrochloride],μ°max (fitted maximum specific growth rate without inhibitor),[1],0.58 L/h
same,Ki,[1]; [7],41 mM
same,inhibitor-based mumax (corrected for effect of DMSO),[1]; hydrochloride,0.48 L/h and 0.38 L/h
same,observed μmax,[1]; hydrochloride,0.48 L/h and 0.24 L/h
"COC(=O)c1ccccc1S(=O)(=O)NC(=O)Nc1nc(C)nc(OC)n1 [Ally, metsulfuron methyl]",zones of growth inhibition (inhibition of yeast growth),[3],inhibit growth
"CCOC(=O)c1ccccc1S(=O)(=O)NC(=O)Nc1nc(Cl)cc(OC)n1 [Classic, chlorimuron ethyl]",zones of growth inhibition (inhibition of yeast growth),[3],inhibit growth
O=C(O)c1cn[nH]c1 [4-pyrazolecarboxylic acid],inhibitor-based mumax (corrected for effect of DMSO),[1],0.59 L/h and 0.50 L/h
same,μ°max (fitted maximum specific growth rate without inhibitor),[1],0.60 L/h
same,Ki,[1]; [7],100 mM
COC(=O)c1ccccc1S(=O)(=O)NC(=O)Nc1nc(C)cc(C)n1 [sulfometuron methyl],overall observable μ°max,[1],0.59 L/h
same,μmax (maximum specific growth rate),[1],0.04 L/h and 0.05 L/h
same,μ°max 1,[1],0.55 L/h
same,μ°max 2,[1],0.04 L/h
same,IC50,[1]; [5],< 0.1 mM
same,Ki,[1]; [6],< 0.1 mM
same,zones of growth inhibition (inhibition of yeast growth),[3],inhibit growth
same,resistance (growth scored after overnight incubation),[4],higher resistance
